Where two headings read alike, the source gives them in different places.
Assays:
[1] = test system: singes cynomolggus (Macaca fascicularis); settings: monkey
Source text: L'étude a été réalisée chez sept singes cynomolggus (Macaca fascicularis), de sexe mâle et femelle, pesant entre 2 et 5 kg.
Un mois avant le début de l'étude, sous anesthésie générale (kétamine + xylazine) huit électrodes (boules d'argent) ont été implantées dans la table osseuse, au niveau des aires frontale, centrale, pariétale et occipitale droites et gauche. L'électrocorticogramme a été enregistré sur un électroencéphalographe REEGA mini-huit (Alvar Electronic) en dérivations monopolaires par rapport à une référence commune.
Les enregistrements ont été réalisés sur des animaux habitués au siège à contention, en position assise, dans une pièce calme mais non insonorisée, en ambiance lumineuse tamisée.
Les huit dérivations EEG ont été analysées simultanément par un Neuromapper 1620 (Neuroscience) qui extrait du signal les transformées de Fourier ("Fast Fourier Transform" : FFT). En fait, 90 échantillons de 2 secondes, soit 3 minutes de tracé exempt d'artefact, ont été analysés. Les données recueillies correspondent à l'amplitude (»V) de chacune des 5 bandes de fréquence EEG classiques selon les bornes suivantes : delta de 0 à 4 Hz ; thêta de 7 à 8 Hz ; alpha de 8 à 13 Hz, bêta₁ de 13 à 20 Hz ; bêta₂ de 20 à 30 Hz.
Pour chacune de ces bandes ont ensuite été calculées : • Les puissances absolues en »V² • les puissances relatives (%), c'est-à-dire la puissance de chacune des bandes de fréquence rapportée à la puissance totale du spectre (power) • la "SEF 95 % (Spectral Edge Frequency 95 %) qui est la fréquence en deçà de laquelle se situent 95 % de la puissance totale du spectre, • le rapport entre fréquences rapides et fréquences lentes : alpha+ bêta/delta + thêta ( α+β/δ+ϑ [formula] )
La dernière ingestion a précédé de 1 heure la seconde administration de diazépam.
Le diazépam (ampoules injectables - Valium® 10 - Roche) a été administré par voie orale, en solution aqueuse, sous un volume de 10 ml/singe, à des doses comprises entre 0,5 mg.kg⁻¹ et 4 mg.kg⁻¹ (doses différentes du fait d'une sensibilité individuelle propre à chaque sujet).
100 (le seuil de probabilité statistique choisi peut paraître élevé ; il est en rapport avec le faible nombre de sujets : n=7). L'ensemble de l'analyse statistique a été obtenu grâce au programme statistique SPSS/PC⁺ (SPSS Inc., Chicago)

souris = settings: mouse; for Nombre de passages (moyenne): 60 min before test, controls 5,5
Source text: Le test est pratiqué chez des souris NMRI-HAN soumises à une diète hydrique préalable de 18 heures et réparties en séries de 15.
L'appareillage utilisé consiste en une boite en plexiglas dont le sol est constitué de 4 plaques métalliques séparées les unes des autres. Un circuit d'alimentation permet d'établir une différence de potentiel entre deux plaques adjacentes grâce à un contacteur. Le test est pratiqué en plaçant doucement une souris sur une des plaques du fond de l'appareil ; les plaques sont électrifiées chaque fois que la souris passe de l'une à l'autre, de telle sorte qu'elle reçoit alors un choc électrique au niveau des pattes. Les paramètres du choc sont les suivants : durée de l'impulsion électrique égale à 0,5 seconde ; intensité égale à 0,6 milliampères. Ce choc induit chez les animaux une réaction motrice évidente de fuite, la souris traversant souvent 2 à 3 plaques successivement. Les conditions expérimentales adoptées ont été les suivantes : exploration libre pendant 15 secondes, traversée punie pendant la minute suivante, les résultats étant exprimés en nombre de passages "punis" pendant cette minute. Soixante souris ont été réparties de la façon suivante :
Les administrations ont été réalisées par voie intra-gastrique, à partir de solutions aqueuses, sous un volume constant de 20 ml.kg⁻¹, 60 minutes avant le début du test. Les animaux contrôles ont reçu un même volume d'eau distillée.
Les administrations ont été réalisées par voie intra-gastrique, à partir de solutions aqueuses, sous un volume constant de 20 ml.kg⁻¹ par produit 60 minutes avant le début du test. Les animaux contrôles ont reçu un même volume d'eau distillée.
Dans un premier temps a été calculée la DA 50 (dose anxiolytique 50) du Diazépam (Valium® 10 mg - Roche, ampoule 2ml) seul, administré à des doses suivant une progression géométrique de base 0,25 et de raison 2, soit respectivement 0,25, 0,5 l et 2 mg.kg⁻¹.
La DA 50 est déterminée à partir du pourcentage d'animaux tranquillisés. Est considéré comme tranquillisé tout animal dont le nombre de passages punis est égal ou supérieur à 9, c'est-à-dire à une valeur représentant une augmentation d'au moins 50 % par rapport au score moyen d'animaux non traités.
Toutes les administrations ont été réalisées par voie intra-gastrique à partir de solutions aqueuses, sous un volume constant de 20 ml.kg⁻¹ (eau distillée pour le groupe contrôle). […] La veille du test, les souris sont soumises à une diète hydrique de 18 heures. La dernière ingestion est pratiquée une heure avant l'étude, concomitamment avec le diazépam (Valium® 10 mg - Roche, ampoules de 2 ml).

## CN1C(=O)CN=C(c2ccccc2)c2cc(Cl)ccc21 [Diazépam, reference compound]
[1]; diazepam alone 0,5-4 mg.kg⁻¹ P.O.
  durée de l'action: jusqu'à la 5ème heure
[1]; diazepam alone 0,5-4 mg.kg⁻¹ P.O., figure 4
  valeurs du rapport α+β/δ+ϑ: augmentation durable
[1]; diazepam alone 0,5-4 mg.kg⁻¹ P.O., time after ingestion
  acmé de l'effet: 45 minutes à une heure
[1]; diazepam alone 0,5-4 mg.kg⁻¹ orally, at peak effect one hour after ingestion, reference 20 %
  proportion relative de la bande β₂: 27%
[1]; diazepam alone (first test), figure 3
  "SEF 95 %": temps du maximum: 30 min
souris; Valium alone 0,5 mg.kg⁻¹ P.O.
  Nombre de passages (moyenne): 7,7
souris; Valium alone 0,25 mg.kg⁻¹ P.O.
  Nombre de passages (moyenne): 7,3
souris; Valium alone 1 mg.kg⁻¹ P.O.
  Nombre de passages (moyenne): 9,5
souris; Valium alone 2 mg.kg⁻¹ P.O.
  Nombre de passages (moyenne): 10,6
souris; diazepam alone P.O., from % tranquillised animals (>= 9 punished crossings)
  DA 50 (dose anxiolytique 50): 0,76 mg.kg⁻¹

Reference: patent publication EP0476120B1, “PROCESS FOR PREPARING EQUIMOLAR SALTS OF ASPARTIC ACID AND MAGNESIUM, MAGNESIUM ASPARTATE SALT OBTAINED BY SAID PROCESS AND ITS APPLICATIONS” (LA[…] SPINDLER, priority 1990, dated 1991)
